Read-outs that look alike come from different tables or passages of the source.
What was measured:
[1] = target: T1, IRAK4 (Homo sapiens (Human), UniProt Q9NWZ3); assay: IRAK4 Biochemical HTRF Kinase Assay; conditions: read-out: IRAK4 HTRF biochemical: IC50
In short: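 IC50 values derive from non-linear regression of sixteen concentrations in duplicate. Kinase reaction ran 90 min at ambient temperature after adding 5 μM STK-S1 substrate, 10 mM ATP and 10 mM MgCl2 (reaction-solution levels, pre-dilution to 10 μl); phospho-peptide detected by HTRF after 60 min.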
Target sequence in this assay (Q9NWZ3 whole entry, species assumed): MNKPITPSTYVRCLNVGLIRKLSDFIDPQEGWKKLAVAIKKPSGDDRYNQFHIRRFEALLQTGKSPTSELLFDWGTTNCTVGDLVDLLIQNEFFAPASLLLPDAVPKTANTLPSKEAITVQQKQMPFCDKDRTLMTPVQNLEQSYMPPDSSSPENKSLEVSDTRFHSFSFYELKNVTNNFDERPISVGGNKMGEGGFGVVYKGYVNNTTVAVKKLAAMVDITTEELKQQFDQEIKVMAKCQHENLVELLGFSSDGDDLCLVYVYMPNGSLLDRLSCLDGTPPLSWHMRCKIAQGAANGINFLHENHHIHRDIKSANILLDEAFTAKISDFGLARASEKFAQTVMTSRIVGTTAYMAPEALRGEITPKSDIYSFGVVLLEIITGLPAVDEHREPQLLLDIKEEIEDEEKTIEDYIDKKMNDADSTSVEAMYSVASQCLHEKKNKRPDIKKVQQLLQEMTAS

[2] = target: T1, IRAK4; assay: IRAK4 Degradation HiBiT Assay; conditions: HiBiT-tagged Jurkat cells, 4 hrs; for Dmax: Jurkat; for DC50: read-out: Cellular IRAK4 HiBiT: DC50
Target sequence in this assay (Q9NWZ3 whole entry): as the sequence (Q9NWZ3 whole entry, species assumed) above

[3] = read-out: Cellular IRAK4 HiBiT: Dmax, Table 4
[4] = read-out: Cellular IRAK4 HiBiT: Dmax, Table 5, multiple runs

Compound	IC50 ([1]; Table 4)	IC50 ([1]; Table 5, multiple runs)	Dmax [2, 3]	Dmax [2, 4]	DC50 ([2]; Table 4)	DC50 ([2]; Table 5, multiple runs)
Cc1ncsc1-c1ccc(CNC(=O)[C@@H]2C[C@@H](O)CN2C(=O)C(NC(=O)[C@H]2CC[C@H](CN3CCN(c4nnc(-c5cnc(-c6ccc7cc(C#N)cnn67)cc5NC(C)C)s4)CC3)CC2)C(C)(C)C)cc1 (stereo partly drawn) [Example 46, (2S,4R)-1-((S)-2-((1r,4S)-4-((4-(5-(6-(3-cyanopyrrolo[1,2-b]pyridazin-7-yl)-4-(isopropylamino)pyridin-3-yl)-1,3,4-thiadiazol-2-yl)piperazin-1-yl)methyl)cyclohexane-1-carboxamido)-3,3-dimethylbutanoyl)-4-hydroxy-N-(4-(4-methylthiazol-5-yl)benzyl)pyrrolidine-2-carboxamide]	15.4 nM	15.4 nM	78%	73%	1570 nM	1240 nM
CNc1cc(-c2ccc3cc(C#N)cnn23)ncc1-c1nnc(N2CCN(CC3CCN(c4ccc(C(=O)NC5CCC(=O)NC5=O)nc4)CC3)CC2)s1 (stereo not drawn) [Example 161, 5-(4-((4-(5-(6-(3-cyanopyrrolo[1,2-b]pyridazin-7-yl)-4-(methylamino)pyridin-3-yl)-1,3,4-thiadiazol-2-yl)piperazin-1-yl)methyl)piperidin-1-yl)-N-(2,6-dioxopiperidin-3-yl)picolinamide]	–	1.4 nM	–	56%	–	24.6 nM
CC(C)Nc1cc(-c2ccc3cc(C#N)cnn23)ncc1-c1nnc(N2CCN(CCCc3cccc4c3CN(C3CCC(=O)NC3=O)C4=O)CC2)s1 (stereo not drawn) [Example 29, 7-(5-(5-(4-(3-(2-(2,6-dioxopiperidin-3-yl)-1-oxoisoindolin-4-yl)propyl)piperazin-1-yl)-1,3,4-thiadiazol-2-yl)-4-(isopropylamino)pyridin-2-yl)pyrrolo[1,2-b]pyridazine-3-carbonitrile]	0.8 nM	1.1 nM	90%	90%	135 nM	136 nM
CNc1cc(-c2ccc3cc(C#N)cnn23)ncc1-c1nnc([C@H]2CC[C@H](N(C)C(=O)CCC(=O)N[C@H](C(=O)N3C[C@H](O)C[C@H]3C(=O)N[C@@H](C)c3ccccc3)C(C)(C)C)CC2)s1 [Example 174, N1-((1r,4S)-4-(5-(6-(3-cyanopyrrolo[1,2-b]pyridazin-7-yl)-4-(methylamino)pyridin-3-yl)-1,3,4-thiadiazol-2-yl)cyclohexyl)-N4—((S)-1-((2S,4R)-4-hydroxy-2-(((S)-1-phenylethyl)carbamoyl)pyrrolidin-1-yl)-3,3-dimethyl-1-oxobutan-2-yl)-N1-methylsuccinamide]	–	0.6 nM	–	34%	–	1340 nM
CNc1cc(-c2ccc3cc(C#N)cnn23)ncc1-c1nnc(N2CCN(C3CCN(C(=O)c4ccc5c(c4)C(=O)N(C4CCC(=O)NC4=O)C5=O)CC3)CC2)s1 (stereo not drawn) [Example 98, 7-(5-(5-(4-(1-(2-(2,6-dioxopiperidin-3-yl)-1,3-dioxoisoindoline-5-carbonyl)piperidin-4-yl)piperazin-1-yl)-1,3,4-thiadiazol-2-yl)-4-(methylamino)pyridin-2-yl)pyrrolo[1,2-b]pyridazine-3-carbonitrile]	–	0.3 nM	–	109%	–	6.58 nM
CNc1cc(-c2ccc3cc(C#N)cnn23)ncc1-c1nnc([C@H]2CC[C@H](NC(=O)CCCCCOc3cc(-c4scnc4C)ccc3CNC(=O)[C@@H]3C[C@@H](O)CN3C(=O)[C@@H](NC(=O)C3(F)CC3)C(C)(C)C)CC2)s1 [Example 60, (2S,4R)—N-(2-((6-(((1r,4r)-4-(5-(6-(3-cyanopyrrolo[1,2-b]pyridazin-7-yl)-4-(methylamino)pyridin-3-yl)-1,3,4-thiadiazol-2-yl)cyclohexyl)amino)-6-oxohexyl)oxy)-4-(4-methylthiazol-5-yl)benzyl)-1-((S)-2-(1-fluorocyclopropane-1-carboxamido)-3,3-dimethylbutanoyl)-4-hydroxypyrrolidine-2-carboxamide]	3.55 nM	3.5 nM	105%	112%	159 nM	111 nM
N#Cc1cnn2c(-c3cc(NC4CCOCC4)c(-c4nnc(C56CCC(NC(=O)CCOCCOCCOCCNc7cccc8c7C(=O)N(C7CCC(=O)NC7=O)C8=O)(CC5)CC6)s4)cn3)ccc2c1 (stereo not drawn) [Example 2, N-(4-(5-(6-(3-cyanopyrrolo[1,2-b]pyridazin-7-yl)-4-((tetrahydro-2H-pyran-4-yl)amino)pyridin-3-yl)-1,3,4-thiadiazol-2-yl)bicyclo[2.2.2]octan-1-yl)-3-(2-(2-(2-((2-(2,6-dioxopiperidin-3-yl)-1,3-dioxoisoindolin-4-yl)amino)ethoxy)ethoxy)ethoxy)propanamide]	1.6 nM	1.8 nM	71%	75%	27.8 nM	27.2 nM
CNc1cc(-c2ccc3cc(C#N)cnn23)ncc1-c1nnc([C@H]2CC[C@H](NC(=O)C[C@H](NC(=O)[C@@H]3C[C@@H](O)CN3C(=O)[C@@H](NC(=O)C3(F)CC3)C(C)(C)C)c3ccc(-c4scnc4C)cc3)CC2)s1 [Example 118, (2S,4R)—N—((S)-3-(((1r,4S)-4-(5-(6-(3-cyanopyrrolo[1,2-b]pyridazin-7-yl)-4-(methylamino)pyridin-3-yl)-1,3,4-thiadiazol-2-yl)cyclohexyl)amino)-1-(4-(4-methylthiazol-5-yl)phenyl)-3-oxopropyl)-1-((S)-2-(1-fluorocyclopropane-1-carboxamido)-3,3-dimethylbutanoyl)-4-hydroxypyrrolidine-2-carboxamide]	–	1.4 nM	–	118%	–	35.2 nM
CNc1cc(-c2ccc3cc(C#N)cnn23)ncc1-c1nnc([C@H]2CC[C@H](NC(=O)CCC(=O)N[C@H](C(=O)N3C[C@H](O)C[C@H]3C(=O)N[C@@H](C)c3ccccc3)C(C)(C)C)CC2)s1 [Example 173, N1-((1r,4S)-4-(5-(6-(3-cyanopyrrolo[1,2-b]pyridazin-7-yl)-4-(methylamino)pyridin-3-yl)-1,3,4-thiadiazol-2-yl)cyclohexyl)-N4—((S)-1-((2S,4R)-4-hydroxy-2-(((S)-1-phenylethyl)carbamoyl)pyrrolidin-1-yl)-3,3-dimethyl-1-oxobutan-2-yl)succinamide]	–	0.4 nM	–	16%	–	612 nM
CN[C@@H](C)C(=O)N[C@H](C(=O)N1C[C@@H](NC(=O)CCCCCCCCCCC(=O)N2CCN(c3nnc(-c4cnc(-c5ccc6cc(C#N)cnn56)cc4NC(C)C)s3)CC2)C[C@H]1C(=O)N[C@@H]1CCCc2ccccc21)C1CCCCC1 [Example 53, (2S,4S)-4-(12-(4-(5-(6-(3-cyanopyrrolo[1,2-b]pyridazin-7-yl)-4-(isopropylamino)pyridin-3-yl)-1,3,4-thiadiazol-2-yl)piperazin-1-yl)-12-oxododecanamido)-1-((S)-2-cyclohexyl-2-((S)-2-(methylamino)propanamido)acetyl)-N—((R)-1,2,3,4-tetrahydronaphthalen-1-yl)pyrrolidine-2-carboxamide]	5.8 nM	5.8 nM	48%	82%	993 nM	8750 nM
CC(C)Nc1cc(-c2ccc3cc(C#N)cnn23)ncc1-c1nnc([C@H]2CC[C@H](NC(=O)CCOCCOCCOCCNc3cccc4c3C(=O)N(C3CCC(=O)NC3=O)C4=O)CC2)s1 (stereo partly drawn) [Example 4, N-((1r,4r)-4-(5-(6-(3-cyanopyrrolo[1,2-b]pyridazin-7-yl)-4-(isopropylamino)pyridin-3-yl)-1,3,4-thiadiazol-2-yl)cyclohexyl)-3-(2-(2-(2-((2-(2,6-dioxopiperidin-3-yl)-1,3-dioxoisoindolin-4-yl)amino)ethoxy)ethoxy)ethoxy)propanamide]	1.8 nM	1.7 nM	97%	98%	51.8 nM	52.5 nM
CN[C@@H](C)C(=O)N[C@H](C(=O)N1C[C@@H](NC(=O)CCOCCC(=O)N2CCN(c3nnc(-c4cnc(-c5ccc6cc(C#N)cnn56)cc4NC(C)C)s3)CC2)C[C@H]1C(=O)N[C@@H]1CCCc2ccccc21)C1CCCCC1 [Example 54, (2S,4S)-4-(3-(3-(4-(5-(6-(3-cyanopyrrolo[1,2-b]pyridazin-7-yl)-4-(isopropylamino)pyridin-3-yl)-1,3,4-thiadiazol-2-yl)piperazin-1-yl)-3-oxopropoxy)propanamido)-1-((S)-2-cyclohexyl-2-((S)-2-(methylamino)propanamido)acetyl)-N—((R)-1,2,3,4-tetrahydronaphthalen-1-yl)pyrrolidine-2-carboxamide]	0.6 nM	0.6 nM	48%	48%	816 nM	794 nM
CC(C)Nc1cc(-c2ccc3cc(C#N)cnn23)ncc1-c1nnc(N2CCN(Cc3ccc4c(c3)C(=O)N(C3CCC(=O)NC3=O)C4=O)CC2)s1 (stereo not drawn) [Example 20, 7-(5-(5-(4-((2-(2,6-dioxopiperidin-3-yl)-1,3-dioxoisoindolin-5-yl)methyl)piperazin-1-yl)-1,3,4-thiadiazol-2-yl)-4-(isopropylamino)pyridin-2-yl)pyrrolo[1,2-b]pyridazine-3-carbonitrile]	2 nM	2 nM	29%	29%	654 nM	660 nM
